What was measured:
[1] = Inhibitory activity against carbonic anhydrase
[2] = Diuretic activity was determined; assay type: ADME, Urine

| Log Ki [1] | Log 1/C [2] | Structure (SMILES) |
| --- | --- | --- |
| -5.95 | 0.39 | CC(=O)c1ccc(S(N)(=O)=O)cc1 |
| -5.3 | 0.17 | Cc1cccc(S(N)(=O)=O)c1 |
| -4.87 | -0.03 | CNc1ccc(S(N)(=O)=O)cc1 |
| -5.34 |  | COc1ccc(S(N)(=O)=O)cc1 |
| -4.79 | -0.3 | Cc1ccccc1S(N)(=O)=O |
| -5.95 | 1 | N#Cc1ccc(S(N)(=O)=O)cc1 |
| -5.92 | 0.26 | NS(=O)(=O)c1ccc(Br)cc1 |
| -6.85 | 0.57 | NS(=O)(=O)c1ccc([N+](=O)[O-])c(C(F)(F)F)c1 |
| -5.07 | -0.3 | NS(=O)(=O)c1ccccc1[N+](=O)[O-] |
| -6.39 | 0.24 | NS(=O)(=O)c1ccc(Cl)c(Cl)c1 |
| -5.88 | 0.67 | NS(=O)(=O)c1cccc([N+](=O)[O-])c1 |
| -5.52 | -0.3 | NS(=O)(=O)c1ccccc1Cl |
| -5.63 | 0.29 | NS(=O)(=O)c1cccc(Cl)c1 |
| -6.76 | 0.32 | NS(=O)(=O)c1ccc(Cl)c([N+](=O)[O-])c1 |
| -5.21 | 0.13 | NS(=O)(=O)c1ccccc1 [BENZENESULFONAMIDE] |
| -5.72 |  | NS(=O)(=O)c1ccc(Cl)cc1 [P-CHLOROBENZENESULFONAMIDE] |
| -5.42 | 0.18 | Cc1ccc(S(N)(=O)=O)cc1 [P-TOLUENESULFONAMIDE] |
|  | -0.3 | Nc1ccc(S(N)(=O)=O)cc1 [SULFANILAMIDE] |
